Results on three molecules are retold here after article PMC9206686, “Expression, characterization, and activity optimization of a novel cellulase from the thermophilic bacteria Cohnella sp. A01” (Scientific Reports, 2022).

The target of the assay is T1, CelC307 (Cohnella sp. A01, UniProt A0A6C0R5L1).
T1 construct: Ni-NTA or heat-shock purified; GH5 domain predicted 77-362; primers imply N-terminus MGDLERL, C-terminus HAGAR before tag
T1 sequence (A0A6C0R5L1 1-491): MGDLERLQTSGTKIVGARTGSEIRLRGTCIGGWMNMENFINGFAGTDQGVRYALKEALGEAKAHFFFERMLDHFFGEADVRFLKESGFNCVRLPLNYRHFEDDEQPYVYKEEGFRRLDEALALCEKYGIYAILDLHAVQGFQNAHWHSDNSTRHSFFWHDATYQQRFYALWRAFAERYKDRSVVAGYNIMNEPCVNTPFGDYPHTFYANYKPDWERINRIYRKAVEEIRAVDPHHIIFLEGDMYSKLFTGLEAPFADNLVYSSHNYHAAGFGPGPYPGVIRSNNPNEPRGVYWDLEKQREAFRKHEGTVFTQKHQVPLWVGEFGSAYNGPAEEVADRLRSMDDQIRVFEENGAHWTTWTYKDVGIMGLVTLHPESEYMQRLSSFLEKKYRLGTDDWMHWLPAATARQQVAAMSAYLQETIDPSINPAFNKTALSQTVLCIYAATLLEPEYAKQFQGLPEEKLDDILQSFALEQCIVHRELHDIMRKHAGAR
The experiment in a line: DNS reducing-sugar assay, Lineweaver-Burk. It is filed as biochemical. The note with it: inhibitor, CMC substrate; […] inhibitor, pH […] °C.

As to `OCC1(O)OC[C@@H](O)[C@@H](O)[C@@H]1O` (stereo partly drawn) [fructose], the inhibition mode result (mixed-type) was “the fructose and lactose exhibited the mixed-type inhibition mode”.

For the molecule `OC[C@H]1O[C@@H](O[C@H]2[C@H](O)[C@@H](O)C(O)O[C@@H]2CO)[C@H](O)[C@@H](O)[C@H]1O` (stereo partly drawn) [lactose], where the note is “mixed-type”, the inhibition mode entry is “the fructose and lactose exhibited the mixed-type inhibition mode”.

Turning to `OC[C@H]1O[C@H](O[C@H]2[C@H](O)[C@@H](O)C(O)O[C@@H]2CO)[C@H](O)[C@@H](O)[C@@H]1O` (stereo partly drawn) [maltose], the inhibition mode result (non-competitive) is recorded as “the inhibition mode of maltose was non-competitive because the Vmax was reduced”.
